From patent US20210221848A1, “POLYMYXIN DERIVATIVES AND THEIR USE IN COMBINATION THERAPY TOGETHER WITH DIFFERENT ANTIBIOTICS” (priority 2014, published 2021)

Columns and labels:
[1] = tested on: E. coli strains with elevated MICs to Polymyxin B; experiment: MIC against strains with elevated MICs to Polymyxin B; assay type: cell-based, Escherichia coli; details: Table 6D; for MIC E. coli 058: strain 058, elevated MIC to Polymyxin B; for MIC E. coli 059: strain 059, elevated MIC to Polymyxin B; for MIC E. coli 060: strain 060, elevated MIC to Polymyxin B; for MIC E. coli 061: strain 061, elevated MIC to Polymyxin B
Description: (§1) The inoculum was prepared by making a direct suspension of isolated colonies (selected from an 18-24 hour Mueller-Hinton agar plate) adjusted to the 0.5 McFarland standard. […] The assays were performed in duplicate. […] In cases where the duplicate values varied by less than 2-fold, the lower of the two values is reported. If a variation of greater than 2-fold was observed, the assay was considered non-valid. Several of the compounds were subjected to multiple tests, and where this is the case, the MIC reflects the modal value obtained.
(§2) The Further Synthesis Examples were tested against a range of Gram negative bacteria, and tested for HK-2 cell toxicity. All the worked examples, including the Synthesis and Further Synthesis Examples, were also tested against a range of Gram negative bacteria that are resistant to Polymyxin B (i.e. those strains where Polymyxin B has an elevated MIC value).

[2] = tested on: K. pneumoniae strains with elevated MICs to Polymyxin B; experiment: as above; assay type: cell-based, Klebsiella pneumoniae; details: Table 6D; for MIC K. pneumoniae 062: strain 062, elevated MIC to Polymyxin B; for MIC K. pneumoniae 063: strain 063, elevated MIC to Polymyxin B; for MIC K. pneumoniae 064: strain 064, elevated MIC to Polymyxin B; for MIC K. pneumoniae 655: strain 655, elevated MIC to Polymyxin B
Description: as §1, §2

[3] = tested on: P. aeruginosa strains with elevated MICs to Polymyxin B; experiment: as above; assay type: cell-based, Pseudomonas aeruginosa; details: Table 6D; for MIC P. aeruginosa 065: strain 065, elevated MIC to Polymyxin B; for MIC P. aeruginosa 066: strain 066, elevated MIC to Polymyxin B; for MIC P. aeruginosa 067: strain 067, elevated MIC to Polymyxin B
Description: as §1, §2

[4] = tested on: A. baumanii strains with elevated MICs to Polymyxin B; experiment: as above; assay type: cell-based, Acinetobacter baumannii; details: Table 6D; for MIC A. baumannii 053: strain 053, elevated MIC to Polymyxin B; for MIC A. baumannii 056: strain 056, elevated MIC to Polymyxin B; for MIC A. baumannii 068: strain 068, elevated MIC to Polymyxin B; for MIC A. baumannii 070: strain 070, elevated MIC to Polymyxin B
Description: as §1, §2

E. coli = details: sole activity, Table 6C
K. pneumoniae = details: sole activity, Table 6C
P. aeruginosa = details: sole activity, Table 6C
A. baumannii = details: sole activity, Table 6C

Substance | MIC E. coli 058 [1] [micrograms/mL] | MIC E. coli 059 [1] [micrograms/mL] | MIC E. coli 060 [1] [micrograms/mL] | MIC E. coli 061 [1] [micrograms/mL] | MIC K. pneumoniae 062 [2] [micrograms/mL] | MIC K. pneumoniae 063 [2] [micrograms/mL] | MIC K. pneumoniae 064 [2] [micrograms/mL] | MIC P. aeruginosa 065 [3] [micrograms/mL] | MIC P. aeruginosa 066 [3] [micrograms/mL] | MIC P. aeruginosa 067 [3] [micrograms/mL] | MIC A. baumannii 053 [4] [micrograms/mL] | MIC A. baumannii 056 [4] [micrograms/mL] | MIC A. baumannii 068 [4] [micrograms/mL] | MIC, E. coli ATCC 25922 (E. coli) [micrograms/mL] | MIC, E. coli NCTC 13441 (E. coli) [micrograms/mL] | MIC, K. pneumoniae ATCC 4352 (K. pneumoniae) [micrograms/mL] | MIC, P. aeruginosa ATCC 27853 (P. aeruginosa) [micrograms/mL] | MIC, P. aeruginosa CCUG 59347 (P. aeruginosa) [micrograms/mL] | MIC, A. baumannii ATCC BAA-747 (A. baumannii) [micrograms/mL] | MIC, A. baumannii NCTC 13424 (A. baumannii) [micrograms/mL] | further results
cis-5- (benzylcarbamoyl) piperidine-3- carbonyl Polymyxin B nonapeptide [Example D66] | 8 | 16 | 8 | 32 | 128 | 64 | 32 | 16 | 32 | >256 | >256 | 128 | 32 | 0.125 | 0.125 | 0.125 | 0.5 | 0.5 | 0.25 | 0.25 | MIC, K. pneumoniae ATCC BAA-2146 (K. pneumoniae): 0.06 micrograms/mL
1-(2- hydroxybenzyl)pi- perazine-2- carbonyl Polymyxin B nonapeptide [Example D67] | 8 | 64 | 16 | – | – | 128 | – | 4 | – | – | >256 | – | 64 | 0.06 | 0.125 | 0.03 | 0.25 | 0.5 | 0.5 | 0.25 | MIC, K. pneumoniae ATCC BAA-2146 (K. pneumoniae): 0.06 micrograms/mL
(trans-5-(isobutyl- piperidine)-3- carbonyl L-Thr- D-Ser-polymyxin B heptapeptide [Example D82] | 4 | 4 | 4 | 8 | 32 | 16 | 1 | 0.5 | – | 64 | 16 | 8 | 32 | 0.125 | – | 0.06 | 2 | 4 | 0.06 | 0.125 | MIC K. pneumoniae 655 [2]: 8 micrograms/mL; MIC A. baumannii 070 [4]: 32 micrograms/mL
(trans-5- (cyclohexyl- piperidine)-3- carbonyl L-Thr-L- Dap-polymyxin B heptapeptide [Example D78] | 0.5 | 0.5 | 1 | 1 | – | 4 | 1 | 1 | 0.5 | 32 | 8 | 50.25 | 1 | 0.125 | 0.125 | 0.06 | 0.5 | 0.5 | 0.06 | 0.06 | MIC K. pneumoniae 655 [2]: 4 micrograms/mL; MIC A. baumannii 070 [4]: 1 micrograms/mL; MIC, K. pneumoniae ATCC BAA-2146 (K. pneumoniae): 0.125 micrograms/mL
(trans-5-(isobutyl- piperidine)-3- carbonyl L-Thr- D-Dap-polymyxin B heptapeptide [Example D87] | 1 | 1 | 1 | 4 | 8 | 8 | 0.5 | 0.5 | 0.25 | 64 | 32 | 2 | 2 | 0.03 | – | 0.06 | 0.25 | 1 | 0.03 | 0.03 | MIC K. pneumoniae 655 [2]: 4 micrograms/mL; MIC A. baumannii 070 [4]: 2 micrograms/mL
4-(isobutyl- piperidine)-3- carbonyl L-Thr-L- Dap-polymyxin B heptapeptide [Example D83] | 4 | 8 | 2 | 8 | 32 | 16 | 2 | 2 | 2 | 32 | >64 | 32 | 8 | 0.125 | 0.06 | 0.06 | 0.25 | 0.5 | 0.06 | 0.125 | MIC K. pneumoniae 655 [2]: 16 micrograms/mL; MIC A. baumannii 070 [4]: 16 micrograms/mL
